Residues, ends and D or L forms follow the SMILES beside them. *: point of attachment. Cbz = O=C(OCc1ccccc1)*
| SMILES | melting point |
| --- | --- |
| N#CCCCCCC(=NO)c1ccc(Cl)cc1 | 58 to 59 °C |
| CCN(C(=O)Nc1ccccc1)c1cccc(-c2ccc(CC3SC(=O)NC3=O)cc2)c1 (centres undefined) | 186 °C |
| N#Cc1ccc(Oc2ccc(S(=O)(=O)NCc3ccc4ccccc4n3)cc2)c(Cl)c1 | 83 to 86 °C |
| Nc1nc2c(s1)CCN(CC=Cc1cc(Br)c(N)c(Br)c1)CC2 | 198 to 199 °C |
| Fc1cccc(F)c1CCNC(=S)Nc1ccccn1 | 157 to 160 °C |
| Nn1cc(I)c(=O)[nH]c1=O | 195 to 196 °C |
| COc1ccc(CCc2nc(C(F)(F)F)c[nH]2)cc1 | 146 to 148 °C |
| COc1ccc(C2=NN(c3ccc(C4=NNC(=O)CC4C)cc3)C(=O)C3CC=CCC23)cc1OC (centres undefined) | 192 to 194 °C |
| CCOc1sc(C(=O)N2CCCC2)c2c1-c1oncc1C(C)(C)C2 | 123 to 126 °C |
| CCN(CC)c1ccc(C2(c3ccc(N(C)C)cc3)OC(=O)c3cc(N(C)C)ccc32)c(C)c1 (centres undefined) | 190 to 195 °C |
| CN1CCN(CCCNc2ccc(-n3cc(C(F)(F)F)ccc3=O)c(Cl)c2)CC1 | 129 to 132 °C |
| COC(=O)C(CSc1ccccc1)N1CC(NC(=O)C(=NO)c2ccccc2)C1=O (centres undefined) | 163 to 169 °C |
| Cc1ccc(C(=O)Nc2cccc(C(F)(F)F)c2)cc1-c1ccc2scnc2c1 | 200 to 202 °C |
| COC(=O)c1ccc(-c2nc(COc3ccc(C=O)cc3OC)c(C)o2)cc1 | 185 to 186 °C |
| CCC1c2cccn2-c2ccc(F)cc2N1C(=O)c1ccc(OC)cc1 (centres undefined) | 39 to 42 °C |
| CC(=O)Nc1ccc(NC2CCN3CCc4ccccc4C3C2)cc1 (centres undefined) | 210 to 213 °C |
| COc1ccc2c(CCBr)c[nH]c2c1 | 98 to 101 °C |
| CNC(=O)c1cc(-c2ccc(OC)cc2)nn(CC=Cc2ccc(Cl)cc2)c1=O | 184 to 185 °C |
| Cc1ccc(Sc2cncc3sc(C(=O)Nc4ccc(Cl)cc4)cc23)cc1 | 208 to 211 °C |

| SMILES | melting point |
| --- | --- |
| OCCNCCOc1ccc2cc3ccc(OCCNCCO)cc3nc2c1 | 125 to 127 °C |
| NS(=O)(=O)c1ccc(C2CCCC2)cc1 | 158 °C |
| O=[N+]([O-])C=C1NCCN1Cc1ccc(Cl)nc1 | 160 to 161 °C |
| Clc1ccc(-c2oncc2-c2ccncc2)cc1 | 121 °C |
| CCCCCOC(=O)Nc1ccc(CN2C(=O)CCc3c(CC4SC(=O)NC4=O)ccc(OC)c32)cc1 (centres undefined) | 98 to 102 °C |
| CCOC(=O)Nc1cscc1C(=O)OC | 52 °C |
| CC(=O)c1ccc(C)cc1N(C)C=O | 58 to 60 °C |
| CN(C(=O)C(F)(F)F)N1CCc2ccccc2C(Oc2ccc(C(F)(F)F)cc2)C1 (centres undefined) | 210 to 212 °C |
| Cc1nc(Br)c(S(C)(=O)=O)c(Br)n1 | 161 to 162 °C |
| CCOC(=O)NNC(=O)NCCCCl | 105 to 106 °C |
| Cc1cc(-c2c[nH]cn2)ccc1N=CNC#N | 200 to 202 °C |
| COC(=O)CCC#Cc1cc(Cl)ccc1NS(=O)(=O)c1ccc2nc(NC(C)=O)sc2c1 | 85 °C |
| Cc1ccccc1C(=O)NCN1CCN(c2ncccc2C#N)CC1 | 124 to 127 °C |
| O=C1NC(=O)C(Cc2ccc(OCCON=Cc3cncc(-c4ccccc4)c3)cc2)S1 (centres undefined) | 160 to 161 °C |
| COc1ccc2c(c1)C(CCNC(C)=O)CC2 (centres undefined) | 73 to 74 °C |
| c1ccc2c(c1)NCCCO2 | 50 to 51 °C |
| O=C(NCCC(O)(c1ccccc1)c1ccccc1)c1ccccc1 | 145 to 146 °C |
| CN1CC(CCCl)Oc2cc(Cl)ccc2C1=O (centres undefined) | 85 to 87 °C |
| COc1ccc2cccc3c2c1C(=O)C3=O | 218 to 220 °C |

| SMILES | melting point |
| --- | --- |
| NC(=O)C1(Nc2ccccc2)CCN(C2CCC(c3ccc(F)cc3)(c3ccc(F)cc3)CC2)CC1 | 224 to 227 °C |
| N=C(N)Nc1nc(-c2csc(N)n2)cs1 | 274 °C |
| Cc1cc(Nc2ccnc(Nc3ccc(S(=O)(=O)N(CCNC(=O)OC(C)(C)C)C4CCN(C(=O)OC(C)(C)C)CC4)cc3)n2)ccc1F | 242 to 244 °C |
| CCCCCCCCCCCCCCCCCNC(=O)OCC(CO)Oc1cc(C)on1 (centres undefined) | 77 to 79 °C |
| COC(=O)C(Oc1ccc(Cl)cc1)c1ccc(Sc2ccc(Cl)cc2)cc1 (centres undefined) | 90.5 to 94.5 °C |
| O=[N+]([O-])C=C1NCCCN1c1ccc(Cl)nc1 | 202 °C |
| COC(=O)c1cc(OC(=S)N(C)C)c2cc(-c3ccc(OC)c(C45CC6CC(CC(C6)C4)C5)c3)ccc2c1C | 137 to 138 °C |
| O=C(CCCCC1CCSS1)NO (centres undefined) | 63 to 64 °C |
| COC(=O)NCCc1ccc(C(=O)OC)c(S(N)(=O)=O)c1 | 146 to 149 °C |
| COc1c(N2CCNCC2)c(F)cc2c(=O)c(C(=O)O)c3n(c12)C(C)S3 (centres undefined) | 278 to 280 °C |
| CN1CCC(OC2c3ccccc3CCn3cc(-c4ccccc4)nc32)CC1 (centres undefined) | 113 °C |
| CCn1nnnc1SCc1c(S(C)(=O)=O)ccc(C(=O)OC2=CC(=O)CCC2)c1Cl | 122 to 123 °C |
| CC(C)C(=O)c1cn(Cc2c(F)cccc2F)c2sc(-c3ccc([N+](=O)[O-])cc3)c(CN(C)Cc3ccccc3)c2c1=O | 158 to 162 °C |
| NC(=O)N1CCN(C(=O)Cc2ccc(Cl)c(Cl)c2)C(CN2CCCC2)C1 (centres undefined) | 206 to 209 °C |
| N#Cc1cc(C(=O)O)cc(O)c1O | 269 to 271 °C |
| O=C(NCc1ccc(Cl)cc1)c1cnc2sc(C#CCO)cc2c1O | 233 to 236 °C |
| Cc1ccc(-c2ccc(-c3nnn[nH]3)cc2)cc1C | 192 to 194 °C |
| Clc1cc(Cl)c(C(Cl)Cl)nc1Cl | 61 to 62 °C |
| OCc1cnoc1-c1ccc2c(c1)OCO2 | 92 to 93 °C |

The remaining lines, values ahead:

| melting point | SMILES |
| --- | --- |
| 157 to 158 °C | O=C1NC(=O)C(S(=O)c2ccc3ccccc3c2)S1 (centres undefined) |
| 165 to 180 °C | COc1ccc(N2C(=O)N(C(C)CO)c3nc(Nc4ccccc4)ncc3C2C)cc1 (centres undefined) |
| 213 to 216 °C | Cc1nc2c(N)nc3c(c2n1CCCCS(C)(=O)=O)CCCC3 |
| 160 to 163 °C | Cn1ccnc1-c1ccc(-c2cnc([C@H](Cc3ccccn3)N(C=O)OC(C)(C)C)n2C)cc1 |
| 117 to 118 °C | CSc1ccc2c(c1)C(O)c1ccccc1C=C2 (centres undefined) |
| 100 to 101 °C | CCCCCc1c(C(C)C)nc(C(C)C)c(CO)c1-c1ccc(F)cc1 |
| 202 to 205 °C | CCCC1=C(C(=O)OCC)C(c2ccccc2Cl)c2c[nH]nc2N1 (centres undefined) |
| 108 °C | CC1SC(c2cccnc2)N(CC(=O)OC(C)(C)C)C1=O (centres undefined) |
| 210 to 212 °C | CC(C)(C)OC(=O)N1CC=C(c2c[nH]c3ccc([N+](=O)[O-])cc23)CC1 |
| 179 to 182 °C | COc1ccc(-c2cccc3nc(Nc4cc(OC)c(OC)c(OC)c4)oc23)cc1 |
| 258 to 260 °C | Cc1nc2c(C)nn(C)c2c(=O)[nH]1 |
| 108 °C | COC(=O)C=NOCc1c(F)cccc1COc1ccccc1C |
| 204 to 205 °C | c1ccc(-c2nn3ccccc3c2-c2ccnnc2)cc1 |
| 133 °C | COCc1nnc2ccc(-c3ccccc3)nn12 |
| 168 to 170 °C | CCCc1nc(C)c(C(=O)O)n1Cc1ccc2oc(-c3ccccc3NS(=O)(=O)C(F)(F)F)c(Br)c2c1 |
| 34 to 36 °C | CCCCNc1c(N)c(NCC(C)C)nc(C)c1C(=O)OCC |
| 113 to 115 °C | CC(C)(CNC=O)c1ccc(N)c([N+](=O)[O-])c1 |
| 195 to 196 °C | Cc1nn(-c2ccccn2)c2c1C(=NO)CC(C)(C)C2Br (centres undefined) |
| 159 to 162 °C | CC(C)(C)NC(=O)c1nn(-c2ccc(Cl)cc2)c2c1[C@@H]1CC[C@H]2C1 |
| 210 to 211 °C | CCc1c2c(nn1CC)c(N)nc1cc(OC)ccc12 |
| 178 to 179 °C | N#Cc1sc(-c2ccccc2)nc1N |
| 84 to 85.6 °C | c1ccc(SCC2=NCCN2)cc1 |
| 200 to 205 °C | CC(=O)N1c2c(ccc3c2nc(C)n3C)[C@@H]2O[C@@H]2[C@H]1c1ccccc1 |
| 177 to 178 °C | CN(C(=O)Nc1ccccc1CCc1cc(C(C)(C)C)c(O)c(C(C)(C)C)c1)C1CCN(Cc2ccc(F)cc2)CC1 |

| melting point | SMILES |
| --- | --- |
| 86.9 to 90 °C | Cc1cc2cccc(-c3ccc(Cl)cc3Cl)n2n1 |
| 79 to 83 °C | CC(C)(C)[C@H](NC(=O)CCC1c2ccccc2-c2ccccc21)C(=O)O |
| > 250 °C | Cc1c(C(=O)O)nc2c(=O)[nH]c3ccc(-n4ccnc4)cc3n12 |
| 215 to 216 °C | Cn1ncc(/C=C/C(=O)Nc2ccc(Cc3ccccn3)cc2)c1-c1ccc(F)cc1 |
| 214 to 217 °C | CC(C)Cn1c(C(C)(C)O)nc2c(N)nc3ccccc3c21 |
| 203 to 205 °C | C[C@H](NC(=O)[C@H](C)NC(=O)OCc1ccccc1)C(=O)O (Cbz-Ala-Ala-OH) |
| 193 to 194 °C | COc1cc2c(c(Br)c1OC(C)=O)Sc1cc(C)ccc1N2 |
| 237 to 240 °C | C=C(C)CNc1cc(C(=O)O)cc(S(N)(=O)=O)c1Sc1ccc(N)cc1 |
| 239 to 242 °C | Cn1c(=O)c(=NO)nc(-c2ccccc2)c2ccccc21 |
| 141 to 144 °C | CCc1nc2c(C)cc(C)nc2n1Cc1ccc(C(=C(c2nnn[nH]2)S(C)=O)c2ccccc2)cc1 (centres undefined) |
| 135 to 136 °C | Cc1nc(-c2ccc3c(c2)CCCC3)c(CCC(=O)O)o1 |
| 49 to 52 °C | CCCCC(C)c1cc(O)c2c(c1)OC(C)(C)CC2C1=CCN(Cc2ccc3ccccc3c2)CC1 (centres undefined) |
| 123 °C | CC(C)(O)CNC(=O)c1cccc(-c2cccc3cc(Cc4cc(F)cc(Cl)c4)sc23)c1 |
| 144 to 146 °C | CC(CCCc1cccnc1)NC(=O)C(O)c1ccccc1 (centres undefined) |
| 142 to 143 °C | CC1=C(C)C(=O)C(C(C)c2ccc(CC(=O)O)cc2)=C(C)C1=O (centres undefined) |
| 264 °C | Cc1cccc2cc(C(=O)Cn3ccnc3)ccc12 |
| 83 to 85.5 °C | COC(=O)CCCCc1cc2c(n1-c1ccccc1)CC(O)C2 (centres undefined) |
| 215 to 217 °C | Oc1ccc(-c2cc3c(Br)c(O)cc(Br)c3o2)cc1 |
| 187 to 188 °C | COc1ccc(-c2cc(-c3ccccc3)[nH]c2C(=O)NCc2ccc(C(=O)NO)cc2)cc1 |
| 173 °C | Nc1c2c(nc3cccc(F)c13)C1CCC2C1 (centres undefined) |
| 140 °C | Cc1coc2ncnc(NCCc3ccc(Cl)cc3)c12 |
| 85 °C | c1cnc2c(c1)Cc1ncccc1-2 |
| 127 to 128 °C | COc1ccc(-c2nc(Cl)cc(Cl)n2)cc1 |
